Results published in patent US12569508B2, “Antimicrobial compositions and methods of use” (priority 2020, dated 2026).

Key:
PAO1 biofilm on CFBE41o− = test: Chronic infection model CFBE41o− and PAO1: bacterial counts; format: cell-based, P. aeruginosa
Protocol: A chronic infection model was developed which cultures P. aeruginosa biofilm on top of the bronchial CF epithelium cells (CFBE41o−) at an air-liquid interface. It is a biologically relevant, 3D model that resembles the infected lungs of CF patients.
To assess the activity and toxicity or formulations, the CFBE41o− cell line was seeded on Transwell® inserts (0.05×10^6) at the liquid-liquid interface (500 μL apical and 1500 μL basolateral) on day 0. On day 3, the apical side media was removed, and the basolateral side was replaced with 500 μL of media. On day 7, the transepithelial electrical resistance (TEER) was measured through adding 500 μL to the apical chamber of one well and replacing the basolateral side with 1500 μL. The transferred biofilm model, described above, was employed to transfer the PAO1 biofilm on top of the CFBE41o− cell line in the apical compartment of the Transwells® on day 7. After 1 h incubation, the supernatant was removed as the biofilm has settled onto the cells.
Using the Aerogen® Pro (vibrating mesh nebuliser) and nebulisation chamber, the treatments were then nebulised on top of the biofilm and CFBE41o− cell layer. TOB as an unformulated solution or loaded in the MO-LCNPs were dosed at 10 μg, which was equivalent to 100 μL of 3.32 mg/mL for unformulated TOB and 2.50 mg/mL for MO-LCNPs loaded with TOB. The treatments were prepared by diluting the stock solution/LCNPs suspension to the required concentration in KRB buffer. Each time the nebuliser was first rinsed with KRB buffer and the Transwell® to be dosed was transfered to a clean 12 well plate. The treatment was nebulised following a 30 second deposition waiting time. After all treatments were dosed, the Transwells® were replaced to their original well that included fresh MEM media supplemented with 1% arginine (500 μL) and incubated for the required time at 37° C.
At the time points 24 h and 48 h, different read outs were obtained, including bacterial counts, viability of cells and barrier integrity. […] The plates were incubated for 18 h at 30° C. before the colonies of bacteria were counted.

P. aeruginosa Xen41 = test: Chronic full-thickness wound infection model: bacterial load; format: in vivo, Balb/c mice
Protocol: Immediately after wounding, group 1 was inoculated with 10^7 CFU of bioluminescent P. aeruginosa strain (Xen41, PerkinElmer, Waltham, MA, USA) in 10 μL of 0.9% saline. All other mice were covered with an adhesive dressing (Opsite Flexigrid, Smith & Nephew, London, UK). All mice were given soaked food and free access to water for the study. Postoperative analgesia (0.05 mg/kg buprenorphine) was provided 10 h and 24 h post-surgery via subcutaneous administration. After inoculation, mice were imaged using IVIS Spectrum Live Animal Imaging System (PerkinElmer, Waltham, MA, USA) and then daily until sacrifice to quantity radiance (photons/s) of the bioluminescent bacteria in the wound and correlate to the infection load, as previously described (Abbott C A et al., 2013, Contributors, in Handbook of Proteolytic Enzymes, N. D. Rawlings and G. Salvesen, Editors. 2013, Academic Press. p. xxxv-xlviii). Using built-in Living Image R software, regions of interest (ROI) were selected surrounding the wound to quantify the total photon emission following established protocols (Haidari, H., et al., 2021, Acta Biomaterialia, 128: 420-434; Kopecki, Z., et al., 2009, Journal of Investigative Dermatology, 129(8): 2031-2045).
After the pilot, it was determined that a 6 mm wound+10^6 CFU P. aeruginosa infection was the appropriate model to proceed with. […]

NC[C@H]1O[C@H](O[C@H]2[C@H](O)[C@@H](O[C@H]3O[C@H](CO)[C@@H](O)[C@H](N)[C@H]3O)[C@H](N)C[C@@H]2N)[C@H](N)C[C@@H]1O [unformulated TOB, tobramycin]
P. aeruginosa remaining (PAO1 biofilm on CFBE41o−; 24 h after nebulisation, biofilm of 4×10^8 CFU/mL): 7.4×10^3 CFU/mL | P. aeruginosa remaining (PAO1 biofilm on CFBE41o−; 48 h, one nebulised dose): 1.2×10^3 CFU/mL | P. aeruginosa remaining (PAO1 biofilm on CFBE41o−; 48 h, two nebulised doses): 5.4×10^1 CFU/mL | change in infection level compared to saline (P. aeruginosa Xen41; after each once-daily dose): no statistical change in the infection level | P. aeruginosa remaining in excised wounds (P. aeruginosa Xen41; day six, after three doses of 15 μg topical): 5×10^6 CFU
